Experimental data taken from patent publication US10947242B2, “[1,2,4]triazolo[1,5and#8208;A]pyrimidine compounds as PDE2 inhibitors” (Janssen Pharmaceutica NV, priority 2016, dated 2021).
Where two headings read alike, the source gives them in different places.

Key:
Format in all cases: biochemical
[1] = target: T1, Human recombinant PDE2A (hPDE2A) (Homo sapiens, UniProt O00408); experiment: In vitro assay PDE2A (SPA, 3H-cGMP hydrolysis); conditions: for IC50: read-out: hPDE2A pIC50 (converted); for Emax: read-out: hPDE2A Emax
T1 construct: His tag (inferred from metal chelate purification); made in house; host or cells: Sf9 insect cells (baculovirus)

[2] = target: T2, Human recombinant PDE3A (hPDE3A) (Homo sapiens, UniProt Q14432); experiment: In vitro assay PDE3A (SPA, 3H-cAMP hydrolysis); conditions: for IC50: hPDE3B pIC50, read-out: pIC50 (converted); for Emax: read-out: hPDE3B Emax, read-out: Emax;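 for all read-outs here: the method names PDE3A and the table heading PDE3B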
T2 construct: purchased Scottish Biomedical; host or cells: Sf9 insect cells
Method: Human recombinant PDE3A (hPDE3A) was supplied as a partially purified insect cell lysate by Scottish Biomedical, it was cloned from human brain and expressed in Sf9 cells. Tested compounds were dissolved and diluted in 100% DMSO to a concentration 100 fold of the final concentration in the assay. Compound dilutions (0.4 μl) were added in 384 well plates to 20 μl of incubation buffer (50 mM Tris pH 7.8, 8.3 mM MgCl2, 1.7 mM EGTA). 10 μl of hPDE3A enzyme in incubation buffer was added and the reaction was started by addition of 10 μl substrate to a final concentration of 0.4 μM cAMP and 2.4 μCi/ml [^3H]-cAMP. The reaction was incubated for 60 min at room temperature. […] After sedimentation of the beads during 30 min the radioactivity was measured in a Perkin Elmer Topcount scintillation counter and results were expressed as cpm. For blanc values the enzyme was omitted from the reaction and replaced by incubation buffer. Control values were obtained by addition of a final concentration of 1% DMSO instead of compound.

[3] = target: T3, Human recombinant PDE10A (hPDE10A) (Homo sapiens, UniProt Q9Y233); experiment: In vitro assay PDE10A, human clone (SPA, 3H-cAMP hydrolysis); conditions: human clone (h), default; for Emax: read-out: hPDE10A2 Emax; for IC50: read-out: hPDE10A2 pIC50 (converted)
T3 construct: His tag (inferred from metal chelate purification); made in house; host or cells: Sf9 insect cells (baculovirus)
Method: Rat recombinant PDE10A (rPDE10A2) was expressed in Sf9 cells using a recombinant rPDE10A baculovirus construct. […] Tested compounds were dissolved and diluted in 100% DMSO to a concentration 100 fold of the final concentration in the assay. Human recombinant PDE10A ([…]) was expressed in Sf9 cells using a recombinant hPDE10A baculovirus that was made and amplified in house. […] Compound dilutions (0.4 μl) were added in 384 well plates to 20 μl of incubation buffer (50 mM Tris pH 7.8, 8.3 mM MgCl2, 1.7 mM EGTA). 10 μl of rPDE10A or hPDE10A enzyme in incubation buffer was added and the reaction was started by addition of 10 μl substrate to a final concentration of 60 nM cAMP and 0.008 μCi ^3H-cAMP. The reaction was incubated for 60 minutes at room temperature. […] After sedimentation of the beads during 30 minutes the radioactivity was measured in a Perkin Elmer Topcount scintillation counter and results were expressed as cpm. For blanc values the enzyme was omitted from the reaction and replaced by incubation buffer. Control values were obtained by addition of a final concentration of 1% DMSO instead of compound.

[4] = human recombinant PDE2A, 10 μM cGMP substrate

T2 sequence (Q14432 whole entry): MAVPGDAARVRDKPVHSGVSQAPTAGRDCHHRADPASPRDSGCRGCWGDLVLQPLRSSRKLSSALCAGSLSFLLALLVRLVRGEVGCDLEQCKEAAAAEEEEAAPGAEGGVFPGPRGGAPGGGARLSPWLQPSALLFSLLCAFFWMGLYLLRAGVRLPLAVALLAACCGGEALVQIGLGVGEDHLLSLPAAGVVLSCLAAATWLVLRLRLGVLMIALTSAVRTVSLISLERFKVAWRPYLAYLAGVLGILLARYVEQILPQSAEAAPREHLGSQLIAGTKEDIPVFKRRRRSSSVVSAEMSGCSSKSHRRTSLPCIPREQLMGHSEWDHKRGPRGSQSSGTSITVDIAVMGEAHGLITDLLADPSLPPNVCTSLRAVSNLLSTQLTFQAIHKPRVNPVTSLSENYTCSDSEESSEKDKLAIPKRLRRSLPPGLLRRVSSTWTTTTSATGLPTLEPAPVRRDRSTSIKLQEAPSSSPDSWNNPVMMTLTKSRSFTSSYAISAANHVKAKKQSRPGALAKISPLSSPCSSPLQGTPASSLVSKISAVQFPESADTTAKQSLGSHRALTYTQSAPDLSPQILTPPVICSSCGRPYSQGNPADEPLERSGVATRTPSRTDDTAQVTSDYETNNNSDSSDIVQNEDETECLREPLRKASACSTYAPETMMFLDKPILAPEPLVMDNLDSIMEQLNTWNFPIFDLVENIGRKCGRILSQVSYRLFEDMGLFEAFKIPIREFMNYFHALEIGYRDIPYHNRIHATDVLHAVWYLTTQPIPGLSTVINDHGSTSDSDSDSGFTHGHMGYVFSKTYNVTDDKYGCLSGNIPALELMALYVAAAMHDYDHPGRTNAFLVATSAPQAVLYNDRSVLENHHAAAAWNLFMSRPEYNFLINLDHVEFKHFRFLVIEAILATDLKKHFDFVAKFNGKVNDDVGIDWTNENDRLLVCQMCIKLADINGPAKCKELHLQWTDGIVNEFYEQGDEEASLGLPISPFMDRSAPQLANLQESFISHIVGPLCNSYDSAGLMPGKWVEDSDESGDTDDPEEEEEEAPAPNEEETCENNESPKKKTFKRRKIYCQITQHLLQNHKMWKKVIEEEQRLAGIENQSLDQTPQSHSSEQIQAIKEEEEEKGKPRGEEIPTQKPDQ
T3 sequence (Q9Y233 267-1055): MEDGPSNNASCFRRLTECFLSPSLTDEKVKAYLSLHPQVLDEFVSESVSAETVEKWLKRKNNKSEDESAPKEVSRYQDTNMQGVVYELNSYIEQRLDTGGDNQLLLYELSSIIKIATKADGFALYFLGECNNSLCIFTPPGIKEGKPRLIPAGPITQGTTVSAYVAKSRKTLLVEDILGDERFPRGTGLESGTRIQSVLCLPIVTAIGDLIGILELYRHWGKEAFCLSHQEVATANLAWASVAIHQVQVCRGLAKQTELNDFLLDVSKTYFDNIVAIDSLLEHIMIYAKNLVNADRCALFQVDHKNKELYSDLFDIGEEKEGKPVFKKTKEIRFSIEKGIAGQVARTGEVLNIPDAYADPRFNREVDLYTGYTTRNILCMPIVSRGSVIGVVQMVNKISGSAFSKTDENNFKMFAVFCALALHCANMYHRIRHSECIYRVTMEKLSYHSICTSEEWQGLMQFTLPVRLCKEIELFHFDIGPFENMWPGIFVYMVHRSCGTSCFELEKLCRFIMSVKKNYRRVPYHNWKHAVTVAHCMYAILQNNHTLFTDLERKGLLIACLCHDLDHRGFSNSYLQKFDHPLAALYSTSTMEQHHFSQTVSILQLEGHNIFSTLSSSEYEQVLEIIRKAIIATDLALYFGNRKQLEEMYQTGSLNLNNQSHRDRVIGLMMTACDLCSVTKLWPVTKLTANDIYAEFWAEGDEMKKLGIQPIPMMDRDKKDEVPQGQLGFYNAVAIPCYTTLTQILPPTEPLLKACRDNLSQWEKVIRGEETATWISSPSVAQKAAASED
T1 sequence (O00408 whole entry): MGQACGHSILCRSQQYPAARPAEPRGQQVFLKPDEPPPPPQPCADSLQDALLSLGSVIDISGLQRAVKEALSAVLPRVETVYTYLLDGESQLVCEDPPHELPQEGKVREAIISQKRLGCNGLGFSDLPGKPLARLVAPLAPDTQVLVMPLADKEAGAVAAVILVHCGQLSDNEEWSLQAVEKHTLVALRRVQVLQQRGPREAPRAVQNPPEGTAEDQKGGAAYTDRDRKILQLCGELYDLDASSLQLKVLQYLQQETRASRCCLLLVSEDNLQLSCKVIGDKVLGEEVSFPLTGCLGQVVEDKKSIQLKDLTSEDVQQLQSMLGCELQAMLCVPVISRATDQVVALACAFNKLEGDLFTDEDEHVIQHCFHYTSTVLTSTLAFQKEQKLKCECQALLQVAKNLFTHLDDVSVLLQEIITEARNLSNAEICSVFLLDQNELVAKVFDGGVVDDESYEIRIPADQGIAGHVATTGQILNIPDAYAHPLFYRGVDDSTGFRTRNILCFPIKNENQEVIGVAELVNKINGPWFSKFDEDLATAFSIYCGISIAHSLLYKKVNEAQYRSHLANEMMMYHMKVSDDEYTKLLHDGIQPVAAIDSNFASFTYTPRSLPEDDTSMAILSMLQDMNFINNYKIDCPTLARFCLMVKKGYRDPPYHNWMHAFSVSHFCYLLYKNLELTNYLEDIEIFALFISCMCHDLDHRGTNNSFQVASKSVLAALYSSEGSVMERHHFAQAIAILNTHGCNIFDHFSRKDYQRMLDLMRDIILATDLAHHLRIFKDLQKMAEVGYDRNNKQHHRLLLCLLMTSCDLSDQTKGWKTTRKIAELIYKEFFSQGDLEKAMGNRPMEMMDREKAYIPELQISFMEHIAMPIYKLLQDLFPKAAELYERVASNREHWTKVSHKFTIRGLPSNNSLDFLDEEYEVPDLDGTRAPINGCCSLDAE

SMILES | IC50 [1, 4] [nM] | Emax ([1]; human recombinant PDE2A) [%] | Emax [1] [%] | IC50 [1] [nM] | IC50 [2] [nM] | Emax [2] [%] | Emax [3] [%] | IC50 [3] [nM]
C[C@@H]1CCN(C(=O)c2ccc(F)c(C3CC3)c2)C[C@H]1c1cc(C(F)F)nc2ncnn12 [Compound 135] | 3.31 | 100 | 100 | 3.31 | 2630 | 81 | 97 | 191
C[C@@H]1CCN(C(=O)c2ccc(C(C)(C)C)o2)C[C@H]1c1cc(C(F)F)nc2ncnn12 [Compound 136] | 3.39 | 101 | 101 | 3.39 | > 10000 | 51 | 97 | 288
Cc1c(C(=O)N2[C@H]3CC[C@@H]2[C@H](c2cc(C(F)F)nc4ncnn24)CC3)oc2ccccc12 [Compound 140] | 29.5 | 100 | 100 | 29.5 | 8910 | 57 | 83 | 3090
Cc1cc(C(=O)N2CC[C@@H](C)[C@H](c3cc(C(F)F)nc4ncnn34)C2)nc(C)n1 [Compound 141] | 29.5 | 100 | 100 | 29.5 | > 10000 | 12 | 81 | 2040
C[C@@H]1CCN(C(=O)c2ccncc2N)C[C@H]1c1cc(C(F)F)nc2ncnn12 [Compound 142] | 30.2 | 100 | 100 | 30.2 | > 10000 | 35 | 79 | 2570
Cc1ccc(C(=O)N2CC[C@@H](C)[C@H](c3cc(C(F)F)nc4ncnn34)C2)c(C)n1 [Compound 143] | 33.1 | 97 | 97 | 33.1 | 7940 | 58 | 77 | 2400
CC(C)Oc1cc(C(=O)N2CC[C@@H](C)[C@H](c3cc(C(F)F)nc4ncnn34)C2)cc(C(C)C)c1 [Compound 144] | 34.7 | 100 | 100 | 34.7 | 2400 | 86 | 96 | 468
Cc1c(C(=O)N2CC[C@@H](C)[C@H](c3cc(C(F)F)nc4ncnn34)C2)ccc2c1OCO2 [Compound 145] | 36.3 | 99 | 99 | 36.3 | 2040 | 86 | 93 | 646
C[C@@H]1CCN(C(=O)c2cnc3ccccc3c2O)C[C@H]1c1cc(C(F)F)nc2ncnn12 [Compound 146] | – | – | 100 | 37.2 | 1660 | 85 | 76 | 3310
Cc1csc(C(=O)N2CC[C@@H](C)[C@H](c3cc(C(F)F)nc4ncnn34)C2)c1Cl [Compound 147] | 38 | 100 | 100 | 38 | 2240 | 81 | 90 | 871
C[C@@H]1CCN(C(=O)c2cccc(C(F)(F)F)c2F)C[C@H]1c1cc(C(F)F)nc2ncnn12 [Compound 148] | 38.9 | 101 | 101 | 38.9 | 5620 | 67 | 89 | 912
C[C@@H]1CCN(C(=O)c2c(F)cccc2F)C[C@H]1c1cc(C(F)F)nc2ncnn12 [Compound 149] | 38.9 | 99 | 99 | 38.9 | 5130 | 66 | 83 | 1820
C[C@@H]1CCN(C(=O)c2cccnc2N)C[C@H]1c1cc(C(F)F)nc2ncnn12 [Compound 150] | 39.8 | 100 | 100 | 39.8 | > 10000 | 22 | 72 | 3550
